Measured values as given in patent publication US5066658A, “Substituted hydroxyureas” (Ortho Pharmaceutical Corporation, priority 1990, dated 1991).

Tests used:
5-lipoxygenase = target: T1, 5-lipoxygenase (Rattus norvegicus, UniProt P12527); experiment: Inhibition of 5-lipoxygenase in cell-free homogenate of rat basophilic leukemia (RBL-1) cells; format: biochemical; conditions: 3 μM; RBL-1 cell-free homogenate; read-out: Inhibition of 5-Lipoxygenase, % Inh. @ 3 μM
T1 construct: The cell-free homogenate was prepared by sonication of the cells followed by centrifugation at 40,000 xg; endogenous in cells; host or cells: RBL-1 (rat basophilic leukemia) cells, 40,000 xg supernatant of the sonicate
T1 sequence (P12527 1-673): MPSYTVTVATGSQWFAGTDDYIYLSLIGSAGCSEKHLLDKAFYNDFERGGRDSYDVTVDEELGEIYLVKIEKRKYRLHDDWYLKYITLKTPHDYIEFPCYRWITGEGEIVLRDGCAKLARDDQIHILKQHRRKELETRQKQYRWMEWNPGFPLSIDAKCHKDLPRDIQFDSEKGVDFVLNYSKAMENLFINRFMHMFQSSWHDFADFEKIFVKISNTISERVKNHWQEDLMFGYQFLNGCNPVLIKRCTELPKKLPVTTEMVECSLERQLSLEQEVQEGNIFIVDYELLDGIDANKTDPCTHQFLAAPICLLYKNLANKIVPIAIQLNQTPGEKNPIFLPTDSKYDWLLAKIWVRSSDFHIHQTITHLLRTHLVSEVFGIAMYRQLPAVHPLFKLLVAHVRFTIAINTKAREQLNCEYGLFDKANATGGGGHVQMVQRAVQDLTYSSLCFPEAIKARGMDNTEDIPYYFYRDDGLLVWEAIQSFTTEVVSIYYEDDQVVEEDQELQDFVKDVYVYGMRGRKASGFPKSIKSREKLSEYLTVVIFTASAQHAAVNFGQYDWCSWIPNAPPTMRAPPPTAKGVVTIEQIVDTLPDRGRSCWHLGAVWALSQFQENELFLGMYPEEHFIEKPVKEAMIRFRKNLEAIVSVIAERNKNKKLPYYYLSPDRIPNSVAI
Procedure: The inhibition of 5-lipoxygenase was tested in a cell-free homogenate by the procedure of B. Jakschik et al., Biochem.Biophys.Res.Comm. 95, 103 (1980). Basically, rat basophilic leukemia cells (RBL-1 cells) were maintained in culture in a suitable medium, and were collected by centrifugation prior to assay. The cell-free homogenate was prepared by sonication of the cells followed by centrifugation at 40,000 xg. The CaCl2 dependent production of lipoxygenase products from ^14 C-arachidonic acid in the 40,000 xg supernatant was monitored in the presence of buffer (or other vehicle) or drug. Products were isolated by acidification and extraction, followed by thin layer chromatography. Radioactive areas corresponding to the authentic lipoxygenase products were quantitated by liquid scintillation counting. Data was reported as the IC50, the concentration causing 50% inhibition of the generation of lipoxygenase products. The results are shown it Table I as the percent inhibition at 3 μM or the amount of compound necessary to cause 50% inhibition.

[1] = tested on: Arachidonate-Induced Bronchospasm (cyclooxygenase); experiment: Pulmonary Mechanics Assay: arachidonate-induced bronchospasm without indomethacin (indicative of cyclooxygenase inhibition); format: in vivo, male Hartley guinea pigs; conditions: Cavia porcellus, ID dosing, 50 mg/kg, guinea pig, read-out: Inhibition of Arachidonate-Induced Bronchospasm (ID Dosing), % Inh. without Indomethacin
Procedure: (§1) The bronchodilating activity of the compounds was tested in a pulmonary mechanics assay. Basically, male Hartley guinea pigs (about 400-500 g) were anesthetized with urethane (2 g/kg, i.p.) and placed in a whole body Plethysmograph. Cannulations of a jugular vein and carotid artery were performed for compound administration and monitoring blood pressure, respectively. The trachea was cannulated for respiration at a constate volume via a miniature starling pump. A Validyne differential pressure transducer (±20 cm H2 O) sensed transpleural pressure via a 15 gauge needle inserted into the pleural cavity and a sidearm from the tracheal cannula. Tidal volume was sensed by another Validyne differential pressure transducer (±2 cm H2 O) from pressure changes inside the plethysmograph. An on-line Buxco pulmonary mechanics computer calculated air flow, dynamic lung compliance and lung resistance. The values were recorded on a print-out.
(§2) The guinea pigs were pretreated with succinyl choline (1.2 mg/kg, i.v.) to arrest spontaneous respiration. A control challenge of arachidonic acid (0.5-1.0 mg/kg, i.v.) was administered, and the animals were then dosed with the test compound by various routes. At least 10 minutes were allowed to expire between arachidonic acid challenges. A second challenge was given and compared to the control response. This comparison was indicative of cyclooxygenase inhibition. Indomethacin (10 mg/kg, i.v.) was administered immediately after the second challenge. A third challenge of a higher dose of arachidonic acid (5-10 mg/kg, i.v.) was given. This response was induced by SRS-A and compared to the responses elicited by a separate control group of animals. Activity was indicative of lipoxygenase inhibition. Propranolol (0.005 mg/kg. i.v.) may be given prior to the third challenge to enhance the response to SRS-A.
(§3) Bronchoconstriction induced by arachidonic acid with or without indomethacin was expressed as maximum percent change in dynamic lung compliance (Cdyn) and maximum percent increase in lung resistance (RL). Each guinea pig served as its own control for cyclooxygenase evaluation. The results are shown in Table I and are expressed as the percent inhibition of control.

[2] = tested on: Arachidonate-Induced Bronchospasm (lipoxygenase); experiment: Pulmonary Mechanics Assay: arachidonate-induced bronchospasm with indomethacin (SRS-A response, indicative of lipoxygenase inhibition); format: in vivo, male Hartley guinea pigs; conditions: Cavia porcellus, ID dosing, 50 mg/kg, guinea pig, read-out: Inhibition of Arachidonate-Induced Bronchospasm (ID Dosing), % Inh. with Indomethacin
Procedure: as §1, §2, §3

COc1ccc(CCNC(=O)NO)cc1OC [Example 72, N-[2-(3,4-Dimethoxyphenyl)ethyl]-N'-hydroxyurea]
inhibition at 3 µM (5-lipoxygenase): 21%
inhibition in vivo at 50 mg/kg [1]: 50%
inhibition in vivo at 50 mg/kg [2]: 56%

CN(O)C(=O)NCCCOc1ccc(-c2ccccc2)cc1 [Example 34, N-[3-([l,l'biphenyl]-4-yloxy)propyl]N'hydroxy N'methylurea]
inhibition at 3 µM (5-lipoxygenase): 93%
inhibition in vivo at 50 mg/kg [1]: -74%
inhibition in vivo at 50 mg/kg [2]: 34%

COc1cc(CCNC(=O)N(C)O)ccc1OCc1ccccc1 [Example 68, N-[2-(4-Benzyloxy-3-methoxyphenyl)ethyl]-N'-hydroxy-N'-methylurea]
inhibition at 3 µM (5-lipoxygenase): 69%
inhibition in vivo at 50 mg/kg [1]: < 20%
inhibition in vivo at 50 mg/kg [2]: 28%

CN(O)C(=O)NCCCc1ccc(-c2ccccc2)cc1 [Example 32, N-[3-([1,1'-Biphenyl]-4-yl)propyl]-N'-hydroxy-N'-methylurea]
inhibition at 3 µM (5-lipoxygenase): 71%
inhibition in vivo at 50 mg/kg [1]: < 20%
inhibition in vivo at 50 mg/kg [2]: < 20%

CN(O)C(=O)NCCCCCOc1ccc(-c2ccccc2)cc1 [Example 36, N-[5-([l,l'Biphenyl]-4-yloxy)pentyl]N'-hydroxy-N'-methylurea]
inhibition at 3 µM (5-lipoxygenase): 67%
inhibition in vivo at 50 mg/kg [1]: < 20%
inhibition in vivo at 50 mg/kg [2]: 31%

COc1cc(CCNC(=O)N(C)O)ccc1O [Example 70, N-[2-(4-Hydroxy-3-methoxyphenyl)ethyl]-N'-hydroxy-N'-methylurea]
inhibition at 3 µM (5-lipoxygenase): 39%
inhibition in vivo at 50 mg/kg [1]: < 20%
inhibition in vivo at 50 mg/kg [2]: < 20%

COc1cc(CCNC(=O)N(C)O)cc(OC)c1OC [Example 45, N-[2-(3,4,5-Trimethoxyphenyl)ethyl]-N'-hydroxy-N'-methylurea]
inhibition at 3 µM (5-lipoxygenase): 36%

CCCCC/C=C\C/C=C\C/C=C\C/C=C\CCCNC(=O)N(C)O [Example 22, N-(4,7,10,13-Nonadecatetraenyl)-N'-methyl-N'-hydroxyurea]
inhibition at 3 µM (5-lipoxygenase): 71%

CN(O)C(=O)NCCc1ccc2c(c1)OCCO2 [Example 46, N-[2-(Benzo-1,4-dioxan-6-yl)ethyl]-N'-hydroxy-N'-methylurea]
inhibition at 3 µM (5-lipoxygenase): 42%

COc1ccc(CCN(C(=O)N(C)O)c2ccc(Cl)cc2)cc1OC [Example 67, N-[2-(3,4-Dimethyloxyphenyl)ethyl]-N-(4-chlorophenyl)-N'-methyl-N'-hydroxyurea]
inhibition at 3 µM (5-lipoxygenase): 48%

COc1ccc(CCCN(CCCc2ccc(OC)c(OC)c2)C(=O)N(C)O)cc1OC [Example 63, N,N-Bis-[3-(3,4-dimethoxyphenyl)propyl]-N'-hydroxy-N'-methylurea]
inhibition at 3 µM (5-lipoxygenase): 76%
inhibition in vivo at 50 mg/kg [1]: < 20%
inhibition in vivo at 50 mg/kg [2]: 21%

COc1ccc(C2C3CCC(C3)C2NC(=O)N(C)O)cc1OC (stereo not drawn) [Example 59, N-[trans-3-(3,4-Dimethoxyphenyl)bicyclo[2.2.1]-heptan-2-yl]-N '-hydroxy-N'-methylurea]
inhibition at 3 µM (5-lipoxygenase): 39%

CCCCCCN(O)C(=O)N(C)C [Example 10, N,N-Dimethyl-N'-hexyl-N'-hydroxyurea]
inhibition at 3 µM (5-lipoxygenase): 100%

CN(O)C(=O)NCc1ccc(-c2ccccc2)cc1 [Example 30, N-([1,1'-Biphenyl]-4-ylmethyl)N'hydroxy-N'methylurea]
inhibition at 3 µM (5-lipoxygenase): 74%
inhibition in vivo at 50 mg/kg [1]: < 20%
inhibition in vivo at 50 mg/kg [2]: < 20%

COc1ccc(C2C3C=CC(C3)C2NC(=O)N(C)O)cc1OC (stereo not drawn) [Example 58, N-[trans-3-(3,4-Dimethoxyphenyl)bicyclo[2.2.1]-5-hepten-2-yl]-N'-hydroxy-N'-methylurea]
inhibition at 3 µM (5-lipoxygenase): 37%
inhibition in vivo at 50 mg/kg [1]: 35%
inhibition in vivo at 50 mg/kg [2]: 68%

COc1ccc(OC)c(CCNC(=O)N(C)O)c1 [Example 47, N-[2-(2,5-Dimethoxyphenyl)ethyl]-N'-hydroxy-N'-methylurea]
inhibition at 3 µM (5-lipoxygenase): 56%

COc1ccc(CCNC(=O)N(C)O)cc1O [Example 71, N-[2-(3-Hydroxy-4-methoxyphenyl)ethyl]-N'-hydroxy-N'-methylurea]
inhibition at 3 µM (5-lipoxygenase): 5%
inhibition in vivo at 50 mg/kg [1]: 77%
inhibition in vivo at 50 mg/kg [2]: < 20%

CN(O)C(=O)NCCOc1ccc(-c2ccccc2)cc1 [Example 33, N-[2-([1,1'-biphenyl]-4-yloxy)ethyl]N'-hydroxy-N'-methylurea]
inhibition at 3 µM (5-lipoxygenase): 70%
inhibition in vivo at 50 mg/kg [1]: < 20%
inhibition in vivo at 50 mg/kg [2]: 28%

CN(O)C(=O)N1CCC(C(c2ccccc2)c2ccccc2)CC1 [Example 75, 4-(Diphenylmethyl)-N-hydroxy-N-methylpiperidine-1-carboxamide]
inhibition at 3 µM (5-lipoxygenase): 44%

COc1cccc(C2CCCN(C(=O)N(C)O)C2)c1 (stereo not shown) [Example 73, N-Hydroxy-3-(3-methoxyphenyl)-N-methylpiperidine-1-carboxamide]
inhibition at 3 µM (5-lipoxygenase): 46%

C=CCCCCCCCCNC(=O)N(C)O [Example 18, N-(9-Decenyl)-N'-methyl-N'-hydroxyurea]
inhibition at 3 µM (5-lipoxygenase): 94%

C=CCCCCCCCCC(O)CNC(=O)N(C)O (stereo not shown) [Example 21, N-(2-Hydroxy-11-dodecenyl)-N'-methyl-N'-hydroxyurea]
inhibition at 3 µM (5-lipoxygenase): 22%

COc1ccc(CC(C)NC(=O)N(C)O)cc1OC (stereo not shown) [Example 54, N-[2-(3,4-Dimethoxyphenyl)-1-methylethyl]-N'-hydroxy-N'-methylurea]
inhibition at 3 µM (5-lipoxygenase): 8%

COc1ccc(CNC(=O)N(C)O)cc1OC [Example 42, N-[(3,4-Dimethoxyphenyl)methyl]-N'-hydroxy-N'-methylurea]
inhibition at 3 µM (5-lipoxygenase): 28%

COc1cc2c(cc1OC)CC(NC(=O)N(C)O)C2 [Example 57, N-(5,6-Dimethoxyindan-2-yl)-N'-hydroxy-N'-methylurea]
inhibition at 3 µM (5-lipoxygenase): 55%

COc1ccc(CCN(CC(C)C)C(=O)N(C)O)cc1OC [Example 64, N-[2-(3,4-Dimethoxyphenyl)ethyl]-N'-hydroxy-N'-methyl-N-(2-methylpropyl)urea]
inhibition at 3 µM (5-lipoxygenase): 33%

CCOC(=O)CCCN(O)C(=O)NCCc1ccc(OC)c(OC)c1 [Example 74, N-[2-(3,4-Dimethoxyphenyl)ethyl]-N'-[3-(ethoxycarbonyl)propyl]-N'-hydroxyurea]
inhibition at 3 µM (5-lipoxygenase): 42%

CCCCCCCCCCC1CN(C)C(=O)N(O)C1 (stereo not shown) [Example 29, 5-Decyl-1-hydroxy-3-methyl-3,4,5,6-tetrahydro-lH-pyrimidin-2-one]
inhibition at 3 µM (5-lipoxygenase): 30%

COc1cc(CCNC(=O)N(C)O)cc(OC)c1 [Example 48, N-[2-(3,5-Dimethoxyphenyl)ethyl]-N'-hydroxy-N'-methylurea]
inhibition at 3 µM (5-lipoxygenase): 42%

CN(O)C(=O)NCCc1cccc(Oc2ccccc2)c1 [Example 76, N-Hydroxy-N-methyl-N'-[2-(3-phenoxyphenyl)ethyl]urea]
inhibition at 3 µM (5-lipoxygenase): 66%
